Reference: patent US20230150951A1, “2,5- OR 2,6-DISUBSTITUTED HYDROQUINONE DERIVATIVES WITH AT LEAST ONE CARBOXY, SULFO OR AMIDO GROUP USEFUL AS MEDICAMENTS” (OM PHARMA SA, priority 2020, published 2023)

Key:
[1] = test system: Pan02 tumor cells; assay: Subcutaneous murine pancreatic cancer syngenic model (Pan02); type: in vivo, C57BL/6 mice; set-up: Mean % inhibition of tumor volume Pan02 model: concentration or dose not given beside the values
Procedure: (§1) The objective of this study was to evaluate preclinically the in vivo therapeutic efficacy study of compounds according to the present invention for the treatment of subcutaneously murine pancreatic cancer syngenic model (Pan02) in female C57BL/6 mice and kidney cancer syngenic model (Renca) in female BALB/c mice.
Cell Culture: the Pan02 tumor cells were maintained in vitro with RPMI 1640 medium supplemented with 10% fetal bovine serum at 37° C. in an atmosphere of 5% CO2 in air. The cells in exponential growth phase were harvested and quantitated by cell counter before tumor inoculation.
Tumor Inoculation for Pan02 model: each mouse was inoculated subcutaneously in the right front flank region with Pan02 tumor cells (3×10^6) in 0.1 mL of PBS for tumor development.
(§2) Randomization: The randomization was started when the mean tumor size reaches approximately 100 (80-110) mm^3. For both models, 48 mice were enrolled in the study. All animals were randomly allocated to 6 study groups. Randomization were performed based on “Matched distribution” method using the multi-task method (StudyDirector™ software, version 3.1.399.19). The date of randomization was denoted as day 0.
(§3) Observation and Data Collection: After tumor cells inoculation, the animals were checked daily for morbidity and mortality. During routine monitoring, the animals were checked for any effects of tumor growth and treatments on behavior such as mobility, food and water consumption, body weight gain/loss (body weights were measured twice per week after randomization), eye/hair matting and any other abnormalities. Mortality and observed clinical signs were recorded for individual animals in detail.
(§4) Tumor volumes were measured twice per week after randomization in two dimensions using a caliper, and the volume were expressed in mm3 using the formula: “V=(L×W×W)/2, where V is tumor volume, L is tumor length (the longest tumor dimension) and W is tumor width (the longest tumor dimension perpendicular to L). Tumor weight were measured at the end of study. Dosing as well as tumor and body weight measurements were conducted in a Laminar Flow Cabinet.
(§5) Statistical Analysis: To compare tumor volumes of different groups at a pre-specified day, Bartlett's test was firstly used to check the assumption of homogeneity of variance across all groups. When the p-value of Bartlett's test is >0.05, One-way ANOVA were used to test overall equality of means across all groups.
(§6) If the p-value of the One-way ANOVA is <0.05, post hoc testing by running Tukey's HSD (honest significant difference) tests for all pairwise comparisons, and Dunnett's tests for comparing each treatment group with the vehicle group were performed. When the p-value of Bartlett's test is <0.05, Kruskal-Wallis test were used to test overall equality of medians among all groups. If the p-value the Kruskal-Wallis test is <0.05, post hoc testing by running Conover's non-parametric test for all pairwise comparisons or for comparing each treatment group with the vehicle group were performed, both with single-step p-value adjustment. All statistical analyses were done in R-a language and environment for statistical computing and graphics (version 3.3.1). All tests are two-sided unless otherwise specified, and p-values of <0.05 are regarded as statistically significant.

[2] = test system: Renca tumor cells; assay: Subcutaneous kidney cancer syngenic model (Renca); type: in vivo, BALB/c mice; set-up: concentration or dose not given beside the values
Source text: as §1
The cells in exponential growth phase were harvested and quantitated by cell counter before tumor inoculation.
Tumor Inoculation for Renca model: each mouse was inoculated subcutaneously in the right rear flank region with Renca tumor cells (1×10^6) in 0.1 mL of PBS for tumor development.
as §2, §3, §4, §5, §6

[3] = test system: bleomycin induced pulmonary fibrosis; assay: Bleomycin induced pulmonary fibrosis, 21 days; type: in vivo, mice; conditions: day 21; pirfenidone 100 mg/kg, IVc-059a 15 mg/kg
Procedure: A total of 40 male Balb/c mice aged 8-10 weeks were used for the study.
Mice were anesthetized using an IP injection of xylazine and ketamine. Once an appropriate plane of anaesthesia was achieved, animals had 1.0 U/kg bleomycin sulphate instilled via intratracheal route. The total volume of liquid was 50 μL.
Dosing of IV and positive control (pirfenidone) started 24 hours after bleomycin instillation.
Drug solution was formulated immediately prior to dosing. For a dose of 15 mg/kg (enough for 12, 30 g mice) 4.5 mg of compound was weighed out. 75 μl (5%) DMSO added and mixed until drug is in solution. 150 μl (10%) solutol added and vortexed gently, 150 μl (10%) PEG400 added and vortexed gently. 1000 μl PBS (pH7) was added and matrix was measured to ensure pH 7.0 was maintained. Remaining PBS (to a total of 1500 μl) was added. Compound remained in solution. […]
Ashcroft score: Lungs from each animal were FFPE, sectioned and stained with H&E according to an in-house protocol. […] Each lung was scored using the Ashcroft grading system to measure degree of inflammation/fibrosis as per Hubner et al., 2008. […]
An entire lung from each animal was formalin fixed and stored in 70% ethanol. […] Percent area covered by trichrome staining was quantified using Qupath and ImageJ software.

[4] = day 13, 15 mg/kg, 5 μL/g, I.V., QD*5 for 2 weeks

O=C(O)c1cc(O)cc(CS(=O)(=O)Cc2cc(O)cc(C(=O)O)c2O)c1O [IVc-059a, 3-((2,5-Dihydroxy-3-carboxyphenyl)methylsulfonylmethyl)-2,5-dihydroxybenzoic acid]
Tumor growth (in words) ([1]; 15 mg/kg I.V.): significantly suppressed tumor growth | TGI value ([1]; 15 mg/kg I.V., P<0.05): 20.98% | Mean % inhibition of tumor volume Pan02 model ([1]; Day 0): −0.11% | Mean % inhibition of tumor volume Pan02 model ([1]; Day 3): 19.86% | Mean % inhibition of tumor volume Pan02 model ([1]; Day 6): 18.64% | Mean % inhibition of tumor volume Pan02 model ([1]; Day 9): 18.49% | Mean % inhibition of tumor volume Pan02 model ([1]; Day 13): 20.98% | TGI (%) [1, 4]: 20.98% | Tumor volume ± SEM (mm^3) [1, 4]: 148.49 ± 7.05 (8) mm^3 | Mean % inhibition of tumor volume Renca model ([2]; Day 0): 0.05% | Mean % inhibition of tumor volume Renca model ([2]; Day 3): −0.90% | Mean % inhibition of tumor volume Renca model ([2]; Day 6): 5.02% | Mean % inhibition of tumor volume Renca model ([2]; Day 9): 14.83% | Mean % inhibition of tumor volume Renca model ([2]; Day 13): 23.07% | Mean % inhibition of tumor volume Renca model ([2]; Day 16): 19.42% | Onset of fibrosis in mouse lung (Ashcroft score) [3]: reduced the onset of fibrosis in mouse lung
